According to ChEMBL document CHEMBL4418486, “Heterocyclic compounds for the inhibition of pask” (2015):

Experiment: Half life in Sprague-Dawley rat at 10 mg/kg, po measured after 0.083 to 24 hrs post dose by LC/MS/MS analysis
Format: ADME, organism-based
Settings: in vivo

- half-life: 3.55 h
Compound: CCn1ncc2cc(-c3cc(=O)n4ncc(-c5nc(C)no5)c4[nH]3)ccc21
